Measured values: patent publication US11236025B2, “Methods for improving control of insects and related compositions” (Syngenta Participations AG, priority 2013, dated 2022)
Where two headings read alike, the source gives them in different places.

Legend:
Agrotis ipsilon larvae = test: Control of cutworm: greenhouse tray test on maize, soil application, larval mortality; format: in vivo; conditions: 168 h, infested 7 days after application, read-out: Corr. Mortality (%) 5 DAI
Method: (§1) Plastic trays (13×18×11.5 cm) with 4 holes in the bottom were filled with a filter paper and 400 mL Drench soil. 8 maize seeds (2 rows with 4 seeds each) were placed on the soil. Compound solution was applied with a track-sprayer at 200 L/ha. After drying seeds were covered with 200 mL untreated Drench soil and evened. Trays were incubated in a greenhouse chamber (25° C., 50% r.h., 14 h light (>20′000 lux)) and watered daily. 7 days after application each tray was infested with 5 (6 replicates) Agrotis ipsilon larvae. After infestation all trays were covered with a plastic lid, which was perforated with 6-9 holes for ventilation. 5 days after infestation the survived larvae were counted. Also assessed was the larval growth (size difference between compound replicates and control). TEFL=Tefluthrin.

[1] = tested on: Diabrotica balteata larvae; test: Control of rootworm: greenhouse tray test on maize, soil application, larval mortality; format: in vivo; conditions: 168 h, infested 7 days after application, read-out: Corr. Mortality (%) 5 DAI
Method: as §1, with “(>20,000” for “(>20′000”, “10 (3” for “5 (6”, “Diabrotica balteata” for “Agrotis ipsilon”

[2] = w/15% Nachurs 6-24-6, 25 ppm AI
[3] = w/15% Nachurs 6-24-6, 100 ppm AI
[4] = w/30% Nachurs 6-24-6, 25 ppm AI
[5] = w/30% Nachurs 6-24-6, 100 ppm AI

`Cc1c(F)c(F)c(COC(=O)[C@@H]2[C@H](/C=C(\Cl)C(F)(F)F)C2(C)C)c(F)c1F` (racemic) [TEFL, Tefluthrin] was tested, and the mortality at 25 ppm (Agrotis ipsilon larvae; no fertilizer, 25 ppm AI) was 38%, the mortality at 100 ppm (Agrotis ipsilon larvae; no fertilizer, 100 ppm AI) was 25% and the mortality at 250 ppm (Agrotis ipsilon larvae; no fertilizer, 250 ppm AI) was 71%. It also gave a mortality at 500 ppm (Agrotis ipsilon larvae; no fertilizer, 500 ppm AI) of 92%, a mortality at 1000 ppm (Agrotis ipsilon larvae; no fertilizer, 1000 ppm AI) of 100% and a mortality at 25 ppm (Agrotis ipsilon larvae; [2]) of 31%. For the same compound, the mortality at 100 ppm (Agrotis ipsilon larvae; [3]) was 29%, the mortality at 250 ppm (Agrotis ipsilon larvae; w/15% Nachurs 6-24-6, 250 ppm AI) was 79% and the mortality at 500 ppm (Agrotis ipsilon larvae; w/15% Nachurs 6-24-6, 500 ppm AI) was 100%. It also gave a mortality at 1000 ppm (Agrotis ipsilon larvae; w/15% Nachurs 6-24-6, 1000 ppm AI) of 100%, a mortality at 25 ppm (Agrotis ipsilon larvae; [4]) of 25% and a mortality at 100 ppm (Agrotis ipsilon larvae; [5]) of 29%. For the same compound, the mortality at 250 ppm (Agrotis ipsilon larvae; w/30% Nachurs 6-24-6, 250 ppm AI) was 79%, the mortality at 500 ppm (Agrotis ipsilon larvae; w/30% Nachurs 6-24-6, 500 ppm AI) was 96% and the mortality at 1000 ppm (Agrotis ipsilon larvae; w/30% Nachurs 6-24-6, 1000 ppm AI) was 100%. The mortality at 25 ppm ([1]; no fertilizer, 25 ppm AI) was 0%, the mortality at 50 ppm ([1]; no fertilizer, 50 ppm AI) was 0% and the mortality at 100 ppm ([1]; no fertilizer, 100 ppm AI) was 18%. It also gave a mortality at 200 ppm ([1]; no fertilizer, 200 ppm AI) of 86%, a mortality at 400 ppm ([1]; no fertilizer, 400 ppm AI) of 100% and a mortality at 25 ppm [1, 2] of 4%. For the same compound, the mortality at 50 ppm ([1]; w/15% Nachurs 6-24-6, 50 ppm AI) was 14%, the mortality at 100 ppm [1, 3] was 71% and the mortality at 200 ppm ([1]; w/15% Nachurs 6-24-6, 200 ppm AI) was 100%. For the same compound, the mortality at 400 ppm ([1]; w/15% Nachurs 6-24-6, 400 ppm AI) was 96%, the mortality at 25 ppm [1, 4] was 4% and the mortality at 50 ppm ([1]; w/30% Nachurs 6-24-6, 50 ppm AI) was 11%. The mortality at 100 ppm [1, 5] was 86%, the mortality at 200 ppm ([1]; w/30% Nachurs 6-24-6, 200 ppm AI) was 96% and the mortality at 400 ppm ([1]; w/30% Nachurs 6-24-6, 400 ppm AI) was 100%.
